Test systems include MDA-N; DMS 273 small cell lung; LXFL 529 NSCLC; SNB-78 CNS; HOP-18 NSCLC; DMS 114 small cell lung; M19-MEL melanoma; XF 498 CNS; RXF-631 renal.
Common to all, as to test: NCI anticancer screen, dose series, 48 h

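The compound was tested at five concentrations on cells cultured in 96-well plates, with a 48-hour exposure period. The concentration for 50% growth inhibition is given as GI50. At the TGI there is no net growth.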

Turning to `CC(=O)c1ccc(NCN2C(=O)c3ccccc3C2=O)cc1`, the TGI in the assay with MDA-N is greater than 100 µM.
Turning to `COc1ccc(C#CCC(OC2OC(CO)C(O)C(O)C2O)C(O)c2ccc(OC)c(OC)c2)cc1OC` (stereo not given), the TGI in the assay on DMS 273 small cell lung, in the assay on LXFL 529 NSCLC, in the assay with SNB-78 CNS and with HOP-18 NSCLC was greater than 100 µM each time.
`CC(=O)OCC1OC(Sc2ccccn2)C=CC1OC(C)=O` (stereo not given): the TGI in the assay with DMS 273 small cell lung, in the assay with DMS 114 small cell lung, in the assay on LXFL 529 NSCLC, with M19-MEL melanoma, with XF 498 CNS and in the assay on HOP-18 NSCLC was greater than 100 µM in each case.
Compound `Cn1c(=S)sc2nc3ccccc3n2c1=S` displayed a TGI in the assay with MDA-N of 38.5 µM.
For the compound `CC(C)CC(=O)NS(=O)(=O)c1ccccc1`, the TGI in the assay on DMS 114 small cell lung, in the assay with LXFL 529 NSCLC, with M19-MEL melanoma, in the assay with SNB-78 CNS, with XF 498 CNS and in the assay with RXF-631 renal was greater than 100 µM in each case. The compound further came in with a TGI with HOP-18 NSCLC greater than 100 µM.
`CCSc1nc2n(c(=S)n1)CCN2C`: the TGI in the assay with DMS 273 small cell lung came to 33.6 µM; with DMS 114 small cell lung it was 39.4 µM; with LXFL 529 NSCLC it was 29.5 µM; in the assay on M19-MEL melanoma, 29.4 µM.
Take `O=c1/c(=C/c2ccc3c(c2)OCO3)sc2nnc(-c3ccco3)n12`: the TGI in the assay with DMS 273 small cell lung, in the assay with DMS 114 small cell lung, in the assay on LXFL 529 NSCLC, in the assay on M19-MEL melanoma, with SNB-78 CNS and in the assay on XF 498 CNS was greater than 100 µM throughout. This compound also displayed a TGI in the assay on HOP-18 NSCLC greater than 100 µM.
As for `CN(C)/C=N/c1nc2ncn(CCOC(=O)c3ccccc3)c2c(=O)[nH]1`, the TGI in the assay on DMS 273 small cell lung, in the assay on DMS 114 small cell lung, in the assay with LXFL 529 NSCLC, with M19-MEL melanoma, in the assay on SNB-78 CNS and in the assay with RXF-631 renal was greater than 100 µM throughout. For the same compound, in the assay on HOP-18 NSCLC, the TGI was greater than 100 µM.
As for `C[n+]1ccc(-c2c3nc(c(-c4ccc5c(ccc[n+]5C)c4)c4ccc([nH]4)c(-c4cc[n+](C)cc4)c4nc(c(-c5ccc6c(ccc[n+]6C)c5)c5ccc2[nH]5)C=C4)C=C3)cc1`, in the assay with MDA-N, the GI50 was 30 µM and the TGI is greater than 50 µM.
For the compound `O=C(c1ccc2c3c(ccc(C(=O)C(F)(F)F)c13)CC2)C(F)(F)F`, the TGI in the assay with DMS 273 small cell lung was greater than 100 µM; in the assay with DMS 114 small cell lung it was greater than 100 µM; with LXFL 529 NSCLC it was greater than 100 µM; with M19-MEL melanoma it was greater than 100 µM; in the assay on SNB-78 CNS, greater than 100 µM; with XF 498 CNS, 50.2 µM. The compound also had a TGI in the assay with HOP-18 NSCLC greater than 100 µM.
Turning to `Oc1cc2c(cc1O)-c1[nH]ncc1CC2`, the TGI is greater than 100 µM in the assay with DMS 273 small cell lung; 75.2 µM with DMS 114 small cell lung; greater than 100 µM with LXFL 529 NSCLC; greater than 100 µM with M19-MEL melanoma; greater than 100 µM in the assay on SNB-78 CNS; 86.7 µM with XF 498 CNS. The compound also gave a TGI in the assay with HOP-18 NSCLC of 61.8 µM.
As to `CCC(/C(=N\Nc1c(Cl)cc(Cl)cc1Cl)c1ccccc1)n1ccnc1C` (stereo not given), the TGI in the assay with DMS 273 small cell lung was found to be 19.7 µM; in the assay on DMS 114 small cell lung it was 22.3 µM; in the assay on LXFL 529 NSCLC it was 25.8 µM; with M19-MEL melanoma, 29.7 µM; in the assay on SNB-78 CNS, 42.2 µM; in the assay on RXF-631 renal it was 25 µM. The TGI in the assay on HOP-18 NSCLC was found to be 30.1 µM.
In the assay with MDA-N, `Cc1nc2cc(N)c(Cl)cc2[nH]1` showed a TGI greater than 100 µM.
`COC(=O)C(Cc1nc2ccccc2[nH]c1=O)C(=O)C(=O)Nc1ccc(OC)cc1[N+](=O)[O-]` (stereo not given): the TGI in the assay with LXFL 529 NSCLC, in the assay on M19-MEL melanoma, in the assay on SNB-78 CNS and in the assay on XF 498 CNS was greater than 100 µM throughout.
Regarding `O=C(O)C1OC(Oc2cc(O)c3c(=O)cc(-c4ccc(O)cc4)oc3c2)C(O)C(O)C1O` (stereo not given), the TGI was greater than 100 µM in the assay with DMS 273 small cell lung; greater than 100 µM with DMS 114 small cell lung; greater than 100 µM in the assay on LXFL 529 NSCLC; greater than 100 µM in the assay with M19-MEL melanoma; greater than 100 µM with SNB-78 CNS; 83 µM in the assay on XF 498 CNS.
For the compound `C=C1C(=O)OC2/C=C(\C)C3OC3/C=C(/C(=O)OC)C(OC(C)=O)C(OC(=O)C(C)(O)C(C)OC(C)=O)C12` (stereo not given), the TGI is 10.6 µM in the assay on DMS 273 small cell lung; 4.01 µM in the assay with DMS 114 small cell lung; 2.36 µM in the assay on LXFL 529 NSCLC; 69.1 µM with MDA-N; 22.4 µM with M19-MEL melanoma; 12.4 µM in the assay with SNB-78 CNS. The TGI with XF 498 CNS worked out at 5.6 µM; with RXF-631 renal, 19.6 µM.
On to `COC(=O)C1C2CCCN2OC1(C)CO` (stereo not given), for which the TGI with MDA-N is greater than 100 µM.
In the case of `CC1=C(C(=O)Nc2ccccc2C)C(c2ccc(C3C(C(=O)Nc4ccccc4C)=CNC=C3C(=O)Nc3ccccc3C)cc2)C(C(=O)Nc2ccccc2C)=C(C)N1`, the TGI in the assay on DMS 273 small cell lung was 47.3 µM; in the assay with DMS 114 small cell lung, greater than 60.5 µM; with LXFL 529 NSCLC, 26.6 µM; in the assay with M19-MEL melanoma, greater than 57.3 µM; with SNB-78 CNS, 96.4 µM; in the assay on XF 498 CNS, 41.6 µM. In the assay with HOP-18 NSCLC, the TGI is greater than 76 µM.
Regarding `COc1cc(-c2cc(CCC(=O)Nc3ccccc3[N+](=O)[O-])n(-c3ccc([N+](=O)[O-])cc3[N+](=O)[O-])n2)ccc1O`, the TGI in the assay with DMS 273 small cell lung was greater than 10 µM; in the assay on DMS 114 small cell lung, greater than 100 µM; with LXFL 529 NSCLC, greater than 100 µM; in the assay on M19-MEL melanoma, greater than 100 µM; in the assay with SNB-78 CNS, greater than 100 µM; with XF 498 CNS, greater than 100 µM. The values for the TGI in the assay on RXF-631 renal and in the assay on HOP-18 NSCLC were greater than 100 µM and greater than 10 µM, respectively. Moreover, the GI50 in the assay with DMS 114 small cell lung was greater than 100 µM; in the assay with LXFL 529 NSCLC, greater than 10 µM; with M19-MEL melanoma, greater than 100 µM; in the assay with SNB-78 CNS, greater than 100 µM; with RXF-631 renal it was greater than 100 µM.
